Source: US10435405B2, “Pyrazolopyridine compounds and uses thereof” (Incyte Corporation, priority 2016, dated 2019)

Target: HPK1 (Homo sapiens (Human), UniProt Q92918)
Experiment: HPK1 Kinase Binding Assay
Method in brief: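 Active HPK1 (added as 4 nM solution) was combined with compound (3-fold, 11-point series) and tracer 222 (18 nM) plus Eu-anti-GST antibody (4 nM) in 50 mM HEPES pH 7.5 with MgCl2 and DTT. After 1 h at 25 °C plates were read. Ki values were derived.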

Chain of HPK1 (Q92918 1-346): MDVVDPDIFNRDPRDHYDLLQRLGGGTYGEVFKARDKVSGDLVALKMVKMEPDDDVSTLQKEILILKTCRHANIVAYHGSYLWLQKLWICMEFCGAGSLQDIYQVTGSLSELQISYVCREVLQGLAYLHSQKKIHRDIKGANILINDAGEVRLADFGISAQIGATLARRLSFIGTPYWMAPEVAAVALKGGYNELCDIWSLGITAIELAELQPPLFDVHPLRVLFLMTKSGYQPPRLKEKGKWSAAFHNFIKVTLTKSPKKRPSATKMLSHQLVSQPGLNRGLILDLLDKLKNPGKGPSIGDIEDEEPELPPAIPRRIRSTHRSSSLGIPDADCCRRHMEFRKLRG

| SMILES | Ki [nM] |
| --- | --- |
| Cc1c(CN2CCC2)ccc(F)c1-c1cc2c(-c3cnn(C)c3)n[nH]c2cn1 [Example 94, 5-(3-(Azetidin-1-ylmethyl)-6-fluoro-2-methylphenyl)-3-(1-methyl-1H-pyrazol-4-yl)-1H-pyrazolo[3,4-c]pyridine] | ≤ 100 |
| CNCc1cccc(-c2cc3c(-c4cnn(C)c4)n[nH]c3cn2)c1C [Example 86, N-Methyl-1-(2-methyl-3-(3-(1-methyl-1H-pyrazol-4-yl)-1H-pyrazolo[3,4-c]pyridin-5-yl)phenyl)methanamine] | ≤ 100 |
| CNCc1ccc(-c2cc3c(-c4cnn(C)c4)n[nH]c3cn2)c(C(F)(F)F)c1 [Example 112, N-Methyl-1-(4-(3-(1-methyl-1H-pyrazol-4-yl)-1H-pyrazolo[3,4-c]pyridin-5-yl)-3-(trifluoromethyl)phenyl)methanamine] | ≤ 100 |
| COc1cccc(F)c1-c1cc2c(NC(=O)c3ccc(N4CCOCC4)cc3)n[nH]c2cn1 [Example 24, N-(5-(2-Fluoro-6-methoxyphenyl)-1H-pyrazolo[3,4-c]pyridin-3-yl)-4-morpholinobenzamide] | ≤ 100 |
| Cn1cc(-c2n[nH]c3cnc(-c4c(F)cc(NC(=O)CN5C6CCC5CC6)cc4F)cc23)cn1 [Example 68, 2-(7-Azabicyclo[2.2.1]heptan-7-yl)-N-(3,5-difluoro-4-(3-(1-methyl-1H-pyrazol-4-yl)-1H-pyrazolo[3,4-c]pyridin-5-yl)phenyl)acetamide] | ≤ 100 |
| COc1cccc(F)c1-c1cc2c(-c3cnc(N4CCOCC4)s3)n[nH]c2cn1 [Example 34, 4-(5-(5-(2-Fluoro-6-methoxyphenyl)-1H-pyrazolo[3,4-c]pyridin-3-yl)thiazol-2-yl)morpholine] | ≤ 100 |
| COc1cccc(F)c1-c1cc2c(NC(=O)c3ccc(N4CCN(CC(F)(F)F)C(=O)C4)cc3)n[nH]c2cn1 [Example 29, N-(5-(2-Fluoro-6-methoxyphenyl)-1H-pyrazolo[3,4-c]pyridin-3-yl)-4-(3-oxo-4-(2,2,2-trifluoroethyl)piperazin-1-yl)benzamide] | ≤ 100 |
| CNCc1cc(F)c(-c2ncc3[nH]nc(-c4cnn(C)c4)c3c2OC)c(F)c1 [Example 215, 1-(3,5-Difluoro-4-(4-methoxy-3-(1-methyl-1H-pyrazol-4-yl)-1H-pyrazolo[3,4-c]pyridin-5-yl)phenyl)-N-methylmethanamine] | ≤ 100 |
| CNCCc1ccc(F)c(-c2cc3c(-c4cnn(C)c4)n[nH]c3cn2)c1F [Example 97, 2-(2,4-Difluoro-3-(3-(1-methyl-1H-pyrazol-4-yl)-1H-pyrazolo[3,4-c]pyridin-5-yl)phenyl)-N-methylethanamine] | ≤ 100 |
| COc1cccc(F)c1-c1cc2c(NC(=O)c3cccc(C#N)c3)n[nH]c2cn1 [Example 7, 3-Cyano-N-(5-(2-fluoro-6-methoxyphenyl)-1H-pyrazolo[3,4-c]pyridin-3-yl)benzamide] | ≤ 100 |

The next lines start with the values.

| Ki [nM] | SMILES |
| --- | --- |
| ≤ 100 | CNc1ccc(F)c(-c2cc3c(-c4cnn(C)c4)n[nH]c3cn2)c1F [Example 61, 2,4-Difluoro-N-methyl-3-(3-(1-methyl-1H-pyrazol-4-yl)-1H-pyrazolo[3,4-c]pyridin-5-yl)aniline] |
| ≤ 100 | Cc1cc(CNCc2cocn2)cc(F)c1-c1cc2c(-c3cnn(C)c3)n[nH]c2cn1 [Example 187, N-(3-Fluoro-5-methyl-4-(3-(1-methyl-1H-pyrazol-4-yl)-1H-pyrazolo[3,4-c]pyridin-5-yl)benzyl)-1-(oxazol-4-yl)methanamine] |
| ≤ 100 | CNC1CCc2c1cc(F)c(-c1cc3c(-c4cnn(C)c4)n[nH]c3cn1)c2F (stereo not shown) [Example 198, 4,6-Difluoro-N-methyl-5-(3-(1-methyl-1H-pyrazol-4-yl)-1H-pyrazolo[3,4-c]pyridin-5-yl)-2,3-dihydro-1H-inden-1-amine] |
| ≤ 100 | CCn1cc(-c2n[nH]c3cnc(-c4c(C)cc(C5CCCCN5)cc4F)cc23)cn1 (single isomer, unassigned) [Example 231, 3-(1-Ethyl-1H-pyrazol-4-yl)-5-(2-fluoro-6-methyl-4-(piperidin-2-yl)phenyl)-1H-pyrazolo[3,4-c]pyridine] |
| ≤ 100 | CC(=O)NCc1cc(C)c(-c2cc3c(-c4cnn(C)c4)n[nH]c3cn2)c(F)c1 [Example 191, N-(3-Fluoro-5-methyl-4-(3-(1-methyl-1H-pyrazol-4-yl)-1H-pyrazolo[3,4-c]pyridin-5-yl)benzyl)acetamide] |
| ≤ 100 | CNCc1ccc(F)c(-c2cc3c(-c4cnn(C)c4)n[nH]c3cn2)c1OC [Example 138, 1-(4-Fluoro-2-methoxy-3-(3-(1-methyl-1H-pyrazol-4-yl)-1H-pyrazolo[3,4-c]pyridin-5-yl)phenyl)-N-methylmethanamine] |
